Patent publication US20210379056A1, “SUBSTITUTED PYRAZOLE FUSED RING DERIVATIVE, PREPARATION METHOD THEREFOR, AND APPLICATION THEREOF” (Applied Pharmaceutical Science, Inc., priority 2018, published 2021)
Counter-ions that a name gives are not always drawn.

Columns and labels:
TT Cell = assay: Cell inhibitory activity test (CCK8); type: cell-based; settings: Homo sapiens, TT, Table 3, 72 hours incubation
Description: Cell Inhibitory Activity Test
1. preparing 90 μl of cell suspension in a 96-well plate with 4000 cells/well. Pre-incubating the culture plate in an incubator for 24 hours (37° C., 5% CO2).
2. adding 10 μl of test compounds of different concentrations to each well of cells, and each compound has multiple wells.
3. incubating the culture plate in the incubator for 72 hours.
4. adding 10 μl of CCK8 solution to each well (be careful not to generate bubbles in the well, otherwise they would affect the reading of the OD value).
5. incubating the culture plate in the incubator for 1-2 hours.
6. measuring the absorbance at 450 nm with a microplate reader.
7. according to the compound concentration and absorbance value, GraphpadPrism software was used to calculate the IC50 of each compound.

Ret wt = target: T1, Ret wt (Homo sapiens, UniProt P07949); assay: HTRF kinase activity test, RET wild type; type: biochemical; settings: Table 3; read-out: RET Enzyme (wild type) IC50
T1 construct: purchased Invitrogen PV3082
T1 sequence (P07949 29-1114): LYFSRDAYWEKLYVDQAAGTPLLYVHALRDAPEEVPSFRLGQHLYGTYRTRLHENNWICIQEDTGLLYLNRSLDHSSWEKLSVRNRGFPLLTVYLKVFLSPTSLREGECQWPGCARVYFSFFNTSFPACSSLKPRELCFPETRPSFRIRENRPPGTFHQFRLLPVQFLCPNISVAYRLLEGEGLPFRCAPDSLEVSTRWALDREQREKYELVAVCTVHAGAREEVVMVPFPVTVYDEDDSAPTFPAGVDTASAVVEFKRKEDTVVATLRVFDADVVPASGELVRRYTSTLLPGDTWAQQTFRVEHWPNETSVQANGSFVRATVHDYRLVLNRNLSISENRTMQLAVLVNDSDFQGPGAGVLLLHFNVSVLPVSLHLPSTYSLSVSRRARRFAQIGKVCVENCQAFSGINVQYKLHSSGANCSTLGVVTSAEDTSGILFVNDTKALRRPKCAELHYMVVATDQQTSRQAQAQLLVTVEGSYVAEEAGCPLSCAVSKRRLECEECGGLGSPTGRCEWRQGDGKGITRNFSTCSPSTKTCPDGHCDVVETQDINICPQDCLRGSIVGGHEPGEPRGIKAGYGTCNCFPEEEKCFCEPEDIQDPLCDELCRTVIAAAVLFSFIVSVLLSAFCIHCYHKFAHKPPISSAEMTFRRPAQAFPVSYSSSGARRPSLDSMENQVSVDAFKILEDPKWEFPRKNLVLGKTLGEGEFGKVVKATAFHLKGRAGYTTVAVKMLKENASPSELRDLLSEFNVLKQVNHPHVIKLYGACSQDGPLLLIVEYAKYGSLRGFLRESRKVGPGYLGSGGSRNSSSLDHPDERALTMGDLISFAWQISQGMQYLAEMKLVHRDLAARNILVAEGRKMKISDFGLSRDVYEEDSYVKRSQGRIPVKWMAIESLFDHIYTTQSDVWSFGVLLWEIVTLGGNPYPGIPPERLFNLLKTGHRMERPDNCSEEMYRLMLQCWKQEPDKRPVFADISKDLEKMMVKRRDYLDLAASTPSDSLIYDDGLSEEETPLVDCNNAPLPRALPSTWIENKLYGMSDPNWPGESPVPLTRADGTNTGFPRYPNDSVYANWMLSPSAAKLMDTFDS
Description: This test combined peptide substrates and a single proprietary monoclonal antibody with HTRF technology, which was a highly sensitive and stable technology for detecting molecular interactions of proteins. The enzyme phosphorylates the substrate, then the Eu-labeled antibody binds to the phosphorylated substrate, and streptavidin-XL665 binds to all substrates. The TR-FRET signal was generated by the HTRF principle. […] Based on this, the inhibitory effect was evaluated.
The other compounds were diluted 3-fold gradiently with DMSO from the 10 mM stock solution to a total of 10 concentrations respectively.
Adding 4 volumes of distilled water to 1 volume of enzyme buffer 5×; 5 mM MgCl2; 1 mM DTT.
b) centrifuging the compound plate for 1 minute at 1000 g.
c) sealing the test board.
f) adding 4 μl of 1× kinase buffer to each well of the test plate, centrifuging the sample plate at 1000 g for 30 seconds, and placing it at room temperature for 10 minutes.
g) preparing a solution of 5× TK-substrate-biotin ([…]) in kinase buffer and 5×ATP (50 μM) in kinase buffer respectively.
h) starting the reaction by adding 2 μl STK-substrate-biotin and 2 μl ATP (prepared in the step g).
i) centrifuging the sample plate for 30 seconds at 1000 g. Sealing the test board and placing it at room temperature for 30 minutes.
) centrifuging at 1000 g for 30 seconds and placing it at room temperature for 1 hour.
The inhibition rate % was calculated as follows:
Inhibition rate %=[1−(fluorescence signal value of test compound−fluorescence signal value of positive control)/(average ratio of negative control−average ratio of positive control)]*100%
Ratio: generated from the measured fluorescence signal value
The average ratio of the positive control is the average ratio of the positive control (200 nM AT13148) in the sample plate;
The average ratio of negative controls is the average ratio of negative controls (0.1% DMSO) in the sample plate.
GraphPad 6.0 was used to fit the logarithm of the % inhibition rate and the compound concentration into a nonlinear regression (dose response−variable slope) to calculate the IC50 value.

Row | IC50 (Ret wt) | Structure (SMILES) | IC50 (TT Cell)
1 |  | Cn1cc(-c2cc(-c3ccc(N4CCN(Cc5ccccc5)CC4)nc3)c3c(C#N)c(N)nn3c2)cn1 [APS074, 2-amino-4-(6-(4-benzylpiperazin-1-yl)pyridin-3-yl)-6-(1-methyl-1H-pyrazol-4-yl)pyrazolo[1,5-a]pyridine-3-carbonitrile] | 0.0252 µM
2 |  | Cn1cc(-c2cc(-c3ccc(N4CCN(Cc5cncc(Cl)c5)CC4)nc3)c3c(C#N)c(N)nn3c2)cn1 [APS021] | 0.12 µM
3 |  | Cn1cc(-c2cc(-c3ccc(N4CCN(Cc5ccc(F)c(F)c5)CC4)nc3)c3c(C#N)c(N)nn3c2)cn1 [APS079, 2-amino-4-(6-(4-(3,4-difluorobenzyl)piperazin-1-yl)pyridin-3-yl)-6-(1-methyl-1H-pyrazole-4-yl)pyrazolo[1,5-a]pyridine-3-carbonitrile] | 0.12 µM
4 | 0.0783 µM | Cc1nn2cc(-c3cnn(C)c3)cc(-c3ccc(N4CCC(Cc5ccccn5)CC4)nc3)c2c1C#N [APS072, 2-methyl-6-(1-methyl-1H-pyrazol-4-yl)-4-(6-(4-(pyridin-2-yl-methyl)piperidin-1-yl)pyridine-3-yl)pyrazolo[1,5-a]pyridine-3-carbonitrile] | 
5 |  | COc1cccc(CN2CCN(c3ccc(-c4cc(-c5cnn(C)c5)cn5nc(N)c(C#N)c45)cn3)CC2)n1 [APS030, 2-amino-4-(6-(4-((6-methoxypyridin-2-yl)methyl)piperazin-1-yl)pyridin-3-yl)-6-(1-methyl-1H-pyrazol-4-yl)pyrazolo[1,5-a]pyridine-3-carbonitrile] | 0.0576 µM
6 | 0.234 µM | CNc1nn2cc(-c3cnn(C)c3)cc(-c3ccc(N4CCN(Cc5ccc(OC)nc5)CC4)nc3)c2c1C#N [APS086, 2-methylamino-4-(6-(4-((6-methoxypyridin-3-yl)methyl)piperazin-1-yl)pyridin-3-yl)-6-(1-methyl-1H-pyrazol-4-yl)pyrazolo[1,5-a]pyridine-3-carbonitrile] | 
7 |  | C[C@@H]1CN(c2ccc(-c3cc(-c4cnn(C)c4)cn4nc(N)c(C#N)c34)cn2)CCN1Cc1ccccn1 [APS073, (R)-2-amino-6-(1-methyl-1H-pyrazol-4-yl)-4-(6-(3-methyl-4-(pyridin-2-yl-methyl)piperazine-1-yl)pyridin-3-yl)pyrazolo[1,5-a]pyridine-3-carbonitrile] | 0.144 µM
8 |  | CCN(CC)C(=O)N1CCN(c2ccc(-c3cc(-c4cnn(C)c4)cn4nc(N)c(C#N)c34)cn2)CC1 [APS016, 4-(5-(2-amino-3-cyano-6-(1-methyl-1H-pyrazol-4-yl)pyrazolo[1,5-a]pyridin-4-yl)pyridine-2-yl)-N,N-diethylpiperazine-1-carboxamide] | 0.0311 µM
9 |  | Cn1cc(-c2cc(-c3ccc(N4CCN(Cc5cnccn5)CC4)nc3)c3c(C#N)c(N)nn3c2)cn1 [APS064, 2-amino-6-(1-methyl-1H-pyrazol-4-yl)-4-(6-(4-(pyrazin-2-yl-methyl)piperazin-1-yl)pyridine-3-yl)pyrazolo[1,5-a]pyridine-3-carbonitrile] | 0.15 µM
10 | 0.865 µM | COc1ccc(CN2CCN(c3ccc(-c4cc(-c5cnn(C)c5)cn5nc(NC(C)=O)c(C#N)c45)cn3)CC2)cn1 [APS085, N-(3-cyano-4-(6-(4-((6-methoxypyridin-3-yl)methyl)piperazin-1-yl)pyridin-3-yl)-6-(1-methyl-1H-pyrazol-4-yl)pyrazolo[1,5-a]pyridin-2-yl)acetamide] | 
11 | 0.0189 µM | CCOc1cc(-c2ccc(N3CC4CC(C3)N4Cc3cncc(Cl)c3)nc2)c2c(C#N)c(N)nn2c1 [APS112, 2-amino-4-(6-(6-((5-chloropyridin-3-yl)methyl)-3,6-diazabicyclo[3.1.1]heptan-3-yl)pyridine-3-yl)-6-ethoxypyrazolo[1,5-a]pyridine-3-carbonitrile] | 
12 |  | C[C@@H]1CN(Cc2ccccn2)CCN1c1ccc(-c2cc(-c3cnn(C)c3)cn3nc(N)c(C#N)c23)cn1 [APS076, (R)-2-amino-6-(1-methyl-1H-pyrazol-4-yl)-4-(6-(2-methyl-4-(pyridin-2-yl-methyl)piperazine-1-yl)pyridin-3-yl)pyrazolo[1,5-a]pyridine-3-carbonitrile] | 0.0964 µM
13 |  | CN(C)c1ccc(CN2CCN(c3ccc(-c4cc(-c5cnn(C)c5)cn5nc(N)c(C#N)c45)cn3)CC2)cn1 [APS041, 2-amino-4-(6-(4-((6-(dimethylamino)pyridin-3-yl)methyl)piperazin-1-yl)pyridin-3-yl)-6-(1-methyl-1H-pyrazol-4-yl)pyrazolo[1,5-a]pyridine-3-carbonitrile] | 0.0328 µM
14 |  | COc1ccc(CN2CCN(c3ccc(-c4cc(-c5cnn(C)c5)cn5nc(F)c(C#N)c45)cn3)CC2)cn1 [APS084, 2-fluoro-4-(6-(4-((6-methoxypyridin-3-yl)methyl)piperazin-1-yl)pyridin-3-yl)-6-(1-methyl-1H-pyrazol-4-yl)pyrazolo[1,5-a]pyridine-3-carbonitrile] | 0.342 µM
15 |  | COc1ccc(CN2C3CC2CN(c2ccc(-c4cc(OCC(C)(C)OC)cn5nc(N)c(C#N)c45)cn2)C3)cn1 [APS110, 2-amino-6-(2-methoxy-2-methylpropoxy)-4-(6-(6-((6-methoxypyridin-3-yl)methyl)-3,6-diazabicyclo[3.1.1]heptan-3-yl)pyridin-3-yl)pyrazolo[1,5-a]pyridine-3-carbonitrile] | 0.198 µM
16 |  | COc1ccc(CN2C3CC2CN(c2cnc(-c4cc(OC[C@@H]5CNCCO5)cn5nc(F)c(C#N)c45)cn2)C3)cn1 [APS088, 2-fluoro-4-(5-(6-((6-methoxypyridin-3-yl)methyl)-3,6-diazabicyclo[3.1.1]heptan-3-yl)pyrazin-2-yl)-6-(((S)-morpholin-2-yl)methoxy)pyrazolo[1,5-a]pyridine-3-carbonitrile trifluoroacetate] | 0.265 µM
17 | 0.0646 µM | Cc1nn2cc(-c3cnn(C)c3)cc(-c3ccc(N4CCN(C(=O)Cc5ccc(F)cn5)CC4)nc3)c2c1C#N [APS071, 2-methyl-4-(6-(4-(2-(5-fluoropyridin-2-yl)acetyl)piperazin-1-yl)pyridin-3-yl)-6-(1-methyl-1H-pyrazol-4-yl)pyrazolo[1,5-a]pyridine-3-carbonitrile] | 
18 | 0.212 µM | COc1ccc(CN2CCN(c3ccc(-c4cc(-c5cnn(C)c5)cn5nc(O)c(C#N)c45)cn3)CC2)cn1 [APS083, 2-hydroxy-4-(6-(4-((6-methoxypyridin-3-yl)methyl)piperazin-1-yl)pyridin-3-yl)-6-(1-methyl-1H-pyrazol-4-yl)pyrazolo[1,5-a]pyridine-3-carbonitrile] | 
19 |  | Cn1cc(-c2cc(-c3ccc(N4CCN(Cc5cccnc5)CC4)nc3)c3c(C#N)c(N)nn3c2)cn1 [APS075, 2-amino-6-(1-methyl-1H-pyrazol-4-yl)-4-(6-(4-(pyridin-3-yl-methyl)piperazin-1-yl)pyridine-3-yl)pyrazolo[1,5-a]pyridine-3-carbonitrile] | 0.122 µM
20 |  | Cn1cc(-c2cc(-c3ccc(N4CCN(Cc5ccncc5)CC4)nc3)c3c(C#N)c(N)nn3c2)cn1 [APS078, 2-amino-6-(1-methyl-1H-pyrazol-4-yl)-4-(6-(4-(pyridin-4-yl-methyl)piperazin-1-yl)pyridine-3-yl)pyrazolo[1,5-a]pyridine-3-carbonitrile] | 0.0571 µM
21 |  | Cn1cc(-c2cc(-c3ccc(N4CCN(C(=O)c5c(F)cccc5F)CC4)nc3)c3c(C#N)c(N)nn3c2)cn1 [APS062, 2-amino-4-(6-(4-(2,6-difluorobenzoyl)piperazin-1-yl)pyridin-3-yl)-6-(1-methyl-1H-pyrazole-4-yl)pyrazolo[1,5-a]pyridine-3-carbonitrile] | 0.0341 µM
22 |  | CN(C)c1ccc(CN2CCN(c3ccc(-c4cc(-c5cnn(C)c5)cn5nc(N)c(C#N)c45)cn3)CC2)cc1 [APS034, 2-amino-4-(6-(4-(4-(dimethylamino)benzyl)piperazin-1-yl)pyridin-3-yl)-6-(1-methyl-1H-pyrazole-4-yl)pyrazolo[1,5-a]pyridine-3-carbonitrile] | 0.0328 µM
23 |  | Cn1cc(-c2cc(-c3ccc(N4CCN(Cc5ccc(F)cc5)CC4)nc3)c3c(C#N)c(N)nn3c2)cn1 [APS077, 2-amino-4-(6-(4-(4-fluorobenzyl)piperazin-1-yl)pyridin-3-yl)-6-(1-methyl-1H-pyrazol-4-yl) pyrazolo[1,5-a]pyridine-3-carbonitrile] | 0.0583 µM
